| Structure (SMILES) | melting point |
| --- | --- |
| CC(C)NC(=O)C(Br)C(C)(C)C (configuration not stated) | 128 to 130 °C |
| O=S(=O)(Cl)Cc1cccc(F)c1 | 39 to 41 °C |
| O=[N+]([O-])c1cc([N+](=O)[O-])c(/C(Cl)=C\c2ccccc2)cc1C(Cl)=Cc1ccccc1 | 146 °C |
| CSc1ccc(C(F)(F)F)cc1NN | 86 to 88 °C |
| O=C(NCN1CCOCC1)c1cnccn1 | 118 °C |
| Clc1ccc(-c2nc3c4ccccc4ccn3n2)cc1 | 238 °C |
| O=Cc1cc([N+](=O)[O-])ccc1Sc1ccccn1 | 109 to 110 °C |
| CC(=O)NC1CCCCC(NC(C)=O)CCCC1 (configuration not stated) | 296 to 297 °C |
| Brc1cc(Br)c(Oc2ccccc2)c(Br)c1 | 85 to 86 °C |
| O=C=Nc1ccc(-c2ccco2)cc1 | 66 °C |
| CC(=O)OC[C@H]1O[C@@H](Oc2ccc(C)cc2)[C@H](OC(C)=O)[C@@H](OC(C)=O)[C@@H]1OC(C)=O | 125 to 126 °C |
| CC1CC(OC(=O)c2ccccc2)CC(C)(C)N1 (configuration not stated) | 70.5 °C |
| O=C(Cl)c1cccnc1Sc1ccc(Cl)cc1 | 100 to 103 °C |
| CCOC(=O)c1c(Cl)cc(C)nc1Cl | 53 to 57 °C |
| CC(C)OC(=O)C(C(=O)OC(C)C)=C1SCCS1 | 54.9 °C |
| NC(=O)c1ccccc1OCC(=O)O | 221 °C |
| O=C1C(=O)N(O)C2CCCCC2N1O (configuration not stated) | 243 to 245 °C |
| COc1c(Br)cc(C(=O)O)cc1Br | 224 to 226 °C |
| CCOC(=O)Cc1nn(CC(N)=S)c(=O)c2ccccc12 | 150 to 152 °C |
| C=CCOC(=O)CCC | -80 °C |
| CCc1cccc(CC)c1N(COC)C(=O)CCl | 41 °C |
| NS(=O)(=O)c1cc(C(=O)c2ccc(O)cc2)cs1 | 192 °C |
| Fc1ccc2nc(Cl)sc2c1 | 91 °C |
| COC(=O)c1cccc(C(=O)O)c1N | 160 to 167 °C |
| Cc1ccccc1C=C1C(=O)OC(C)(C)OC1=O | 142 °C |
| Nc1nn(-c2ccccc2)c2nc3ccccc3nc12 | 210 °C |

| Structure (SMILES) | melting point |
| --- | --- |
| O=C1OC=CC(c2ccccc2)Cc2ccccc21 (configuration not stated) | 120 °C |
| CC12CCC3C(CCC4CC5SC5CC43C)C1CCC2O (configuration not stated) | 127 °C |
| c1ccc(Cn2cncn2)cc1 | 49 °C |
| O=C(NC(Cc1ccccc1)C(=O)O)OCc1ccccc1 (configuration not stated) | 88.5 °C |
| Brc1ccc(Oc2ccccc2)c(Br)c1 | < 20 °C |
| OCC1CCCCC1 | -43 °C |
| COC(=O)c1sccc1NC(=O)CBr | 91 to 94 °C |
| COc1ccc(C(=O)c2noc(-c3ccc(C)cc3)c2S(=O)(=O)c2ccccc2)cc1 | 156 °C |
| COc1ccc(Cl)cc1C | 34 °C |
| CC1=C(C(=O)OCc2ccccc2)C(c2ccco2)NC(=O)N1 (configuration not stated) | 195 °C |
| O=C1COC(c2ccc(C(F)(F)F)cc2)CN1 (configuration not stated) | 116 °C |
| Cc1nc(-c2cccc(S(=O)(=O)Cl)c2)no1 | 67 to 69 °C |
| CCCCCCCCCCCCCCCCCCCCCCCCCCCCCCCCCC | 72.6 °C |
| COC(=O)c1cccc(Cl)c1 | 21 °C |
| COc1ccc(Br)cc1C=O | 116 °C |
| O=C(OCCOc1ccc(Cl)cc1Cl)c1ccccc1 | 66 °C |
| N#CCCNc1ccccc1 | 52.5 °C |
| FC(F)(F)c1ccc(-c2nnn[nH]2)cc1 | 226 °C |
| O=[N+]([O-])c1ccc(Nc2ccccc2O)c([N+](=O)[O-])c1 | 198 °C |
| COc1ccc(-c2ccnc(S)n2)cc1 | 202 °C |
| O=C1c2nonc2CCC1Br (configuration not stated) | 65 to 68 °C |
| CC1(C)OC(=O)C(=Cc2ccc(-c3ccc(Br)cc3)o2)C(=O)O1 | 182 °C |
| Cn1ccc(-c2ccc(CCl)cc2)n1 | 78 to 80 °C |
| CCCOc1ccc2[nH]c(NC(=O)OC)nc2c1 | 230 °C |
| FC(F)(F)C(F)(F)C(F)(F)C(F)(F)C(F)(F)C(F)(F)C(F)(F)C(F)(F)I | 37 °C |
| O=c1ccc2cc(OC3OC(CO)C(O)C(O)C3O)c(O)cc2o1 (configuration not stated) | 205 °C |

| Structure (SMILES) | melting point |
| --- | --- |
| Cc1oc(C)c(S(=O)(=O)NCc2cccs2)c1C(=O)O | 167 to 169 °C |
| O=[N+]([O-])c1ccc2c(c1)-c1ccc([N+](=O)[O-])c3cccc-2c13 | 223 °C |
| CCC(c1ccccc1)c1c(O)oc2ccccc2c1=O (configuration not stated) | 180 °C |
| CC12CCC3C(CCC4CC(OCc5ccccc5)CCC43C)C1CCC2O (configuration not stated) | 225 °C |
| CC1CCCC(=O)C1=O (configuration not stated) | 58 °C |
| COc1cc(C=C(C(=O)O)C(=Cc2cc(OC)c(OC)c(OC)c2)C(=O)O)cc(OC)c1OC | 229 °C |
| CC(C)CC(C)(O)C#CC(C)(O)CC(C)C (configuration not stated) | 42 to 44 °C |
| Cn1cc([N+](=O)[O-])c(=O)[nH]c1=O | 267 to 270 °C |
| N#CCc1nc2ccccc2[nH]1 | 210 to 215 °C |
| CCCCCCCCCCCCCCCCC(C)C | 15 °C |
| O=C(c1ccc2c3c(cccc13)CC2)C(Br)c1ccccc1 (configuration not stated) | 118 °C |
| Clc1cc2c(oc3c(Cl)c(Cl)c(Cl)cc32)c(Cl)c1Cl | 240 °C |
| CC(CCC(=O)O)C1CCC2C3C(=O)CC4CCCCC4(C)C3CCC12C (configuration not stated) | 145 °C |
| C=CC12CN(C)C3C4COC(CC41)C1(C(=O)Nc4ccccc41)C32 (configuration not stated) | 178 °C |
| O=C1CC[C@@H](CO)N1 | 78 to 86 °C |
| O=C(Cl)C1=Cc2ccccc2OC1 | 70 to 73 °C |
| CCN(CC)c1nc2ccccc2c(=O)n1-c1ccccc1 | 109 °C |
| C#CC1(O)CCC2(C)C(CCC3C2CCC2(C)C3CCC2(C)O)C1 (configuration not stated) | 190 °C |
| O=C(NCCCCCCO)OCC1c2ccccc2-c2ccccc21 | 119 to 120 °C |
| Cc1oc(S(=O)(=O)N2CCCCC2)cc1C(=O)O | 194 to 195 °C |
| N#C/C(=N/Nc1ccccc1)c1nc(-c2ccc(Cl)cc2)cs1 | 178 °C |
| C[Si](C)(C)OC1(C#Cc2ccccc2)Cc2ccccc21 (configuration not stated) | 64 °C |
| Cc1ccc(N(C)C(=S)Cl)cc1 | 56 to 59 °C |
| COCCCn1c(-c2ccc(C(C)(C)C)cc2)n[nH]c1=S | 116 to 118 °C |

The remaining lines, values ahead:

| melting point | Structure (SMILES) |
| --- | --- |
| 54 °C | O=[N+]([O-])c1cccc(C2OCCO2)c1 |
| 62 °C | NNc1ccc(C(F)(F)F)cc1 |
| -61.6 °C | CC#CCCCCC |
| 202 to 204 °C | Sc1nnc(SCCSc2nnc(S)s2)s1 |
| 130 °C | NNC(=S)NCc1ccccc1 |
| 250 °C | Cc1nc2ccccc2n1CCC(=O)NN1C(=O)CSC1c1ccccc1Cl (configuration not stated) |
| 74 to 77 °C | O=[N+]([O-])c1ccc(S)cc1 |
| 180 to 182 °C | CC(=O)OC1C(=O)C2=C(C(=O)C13CC3C)C(O)C(O)C1C(C)(C)CCCC21C (configuration not stated) |
| 173 °C | CN(C)c1nc(N(C)C)nc(N(C)C)n1 |
| 61 to 63 °C | OC(c1ccccc1)c1ccc(Br)cc1 (configuration not stated) |
| 22 °C | CC(=O)Oc1ccc(C)c(C)c1 |
| 101 to 104 °C | O=Cc1ccc(-c2ccncc2)cc1 |
| 55 to 60 °C | COc1ccc(/C=C/C=O)cc1 |
| 110 to 115 °C | O=S(=O)(c1ccccc1)N(F)S(=O)(=O)c1ccccc1 |
| 35 °C | Nc1cc(C(F)(F)F)cc(C(F)(F)F)c1Br |
| 77 to 78 °C | O=S(=O)(Cl)c1cccc2nonc12 |
| 65 to 69 °C | Clc1ccc(Br)nc1 |
| -7 °C | CCCCCCCCCCCCCC(C)C |
| -113 °C | C=C(C)C(CC)CC |
| 137 °C | Cn1cccc1C(=O)O |
| 119 °C | Cc1ccccc1C(=O)Cc1ccccc1C(=O)N(C)c1ccccc1 |
| 314 °C | CC1(C)CC(=O)C2=C(C1)Nc1ccc3ccccc3c1C2c1ccc(O)cc1 (configuration not stated) |
| 142 °C | O=C1OC(OC2OC(=O)C(Cl)=C2Cl)C(Cl)=C1Cl (configuration not stated) |
| 260 °C | O/N=C1\C(c2ccccc2)=Nc2ccccc21 |
| 120 °C | O=C(CC(=O)c1ccccc1O)c1ccccc1 |
| 133 °C | Cc1cc(O)c([N+](=O)[O-])cc1Cl |

| melting point | Structure (SMILES) |
| --- | --- |
| 156 °C | CC(C)=CCC1C(=O)N(c2ccccc2)N(c2ccccc2)C1=O |
| 73 to 74 °C | CCNC(=O)CC#N |
| 86 °C | O=C(O)c1cc(Cl)ccc1C(F)(F)F |
| 29 °C | CC(C)(c1ccccc1)c1ccccc1 |
| 72 to 75 °C | FC(F)(F)c1ccc(P(c2ccc(C(F)(F)F)cc2)c2ccc(C(F)(F)F)cc2)cc1 |
| -5 °C | Nc1cccc(F)c1 |
| 208 °C | CC1(C)C(C=Cc2cc(Br)cc([N+](=O)[O-])c2[O-])=[N+](Cc2ccccc2)c2ccccc21 |
| 133 °C | CCOc1ccc(-c2nnc3n2NC(c2ccc(O)c(OC)c2)S3)cc1 (configuration not stated) |
| 237 to 240 °C | NC(Cc1ccc(F)c(F)c1)C(=O)O (racemic) |
| 54.5 °C | CCCCCCCCCCCCCCCCCCCC(=O)OC |
| 166 °C | CC(=O)C(=O)Nc1ccc(Br)cc1 |
| 51 °C | Cc1ccc(N=C=O)cc1[N+](=O)[O-] |
| 18 °C | O=C1CCCCCCCCCCC(=O)OCCO1 |
| 104 °C | O=[N+]([O-])c1ncccc1Br |
| 220 to 222 °C | COc1ccc(/C=c2\sc3nc4ccccc4n3c2=O)cc1OC |
| 78 °C | CCc1cc2cc(OC)c(OC)cc2c(Cc2ccccc2)n1 |
| 208 °C | CC(=CCNc1ncnc2nc[nH]c12)CO |
| 276 °C | COc1ccc(/N=N/c2c(N)nn3c(C)cc(=O)[nH]c23)cc1 |
| 265 to 266 °C | NN1C(=O)c2cccc3cccc(c23)C1=O |
| 40 °C | Cc1ccc(S(=O)(=O)OCC(F)(F)F)cc1 |
| 167 to 170 °C | CC(C)n1c(O)nnc1S |
| 136 to 138 °C | CSc1nc(N=Cc2ccc(Cl)cc2)nn1C |
| 73 to 74 °C | Cc1ccc2cc(F)ccc2c1 |
| 300 to 305 °C | COC(=O)Nc1nc2ccc(C(=O)c3cccs3)cc2[nH]1 |
| 193 °C | CCN(CC)S(=O)(=O)c1ccc(C(=O)O)cc1 |
